The values that follow come from patent publication US5021421A, “2-(1-Piperazinyl)-4-phenylcycloalkanopyridine derivatives, processes for the production thereof, and pharmaceutical composition containing the same” (Dainippon Pharmaceutical Co., Ltd., priority 1989, dated 1991).

Series [1] relates to apomorphine-induced vomiting. Briefly: Antagonistic effect on apomorphine-induced vomiting. In kind it is in vivo, dogs (Beagle). The method in brief:
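Beagle dogs (8–15 kg, 3–4 per group) received test compound, then 0.3 mg/kg apomorphine hydrochloride s.c. two hours later. Vomiting episodes counted over 1 h; percent inhibition calculated against a non-dosed control group.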

The next series addresses T1, dopamine (D2) receptor (Rattus norvegicus, UniProt P61169).
T1 construct: Crude synaptosome fractions were prepared from some brain regions in rats for receptor sources; from tissue
Briefly: In vitro binding to dopamine (D2) receptor, [3H] spiperone. Also on record: species or system rats. On the procedure: (§1) Dopamine (D2), serotonin (S1, S2) and adrenaline (α1) receptor binding assays were carried out according to the methods of I. Creese et al. [Eur. J. Pharmacol., 46, 377 (1977), S. J. Peroutka et al. [Mol. Pharmacol. 16, 687 (1979)], J. E. Leysen et al. [Mol. Pharmacol., 21, 301 (1982)] and D. C. U'Prichard et al. [Mol. Pharmacol., 13, 454 (1977)], respectively.
(§2) Crude synaptosome fractions were prepared from some brain regions in rats for receptor sources. Radioactive ligands used were [^3 H] spiperone (D2), [^3 H] serotonin (S1), [^3 H] ketanserin (S2) and [^3 H] WB-4101 (α1). The binding assay was performed by incubating aliquots of synaptosome fraction in buffer solution (final volume: 1 ml) containing a [^3 H] labelled ligand and a test compound. The assay was terminated by rapid filtration through Whatman GF/B glass fiber filters attached to a cell-harvester (Brandel) and radioactivity on the filters was counted in a Packard Triscarb scintillation counter. Specific binding was calculated as a difference between amounts of radioactivity in the presence and absence of an unlabelled ligand [spiperone (D2), serotonin (S1), methysergide (S2) and prazosin (α1)]. The IC50 value of the test compounds (concentration causing 50% inhibition of [^3 H] ligand specific binding) was determined by probit analysis.

A further series has as its target T2, serotonin (S2) receptor (Rattus norvegicus, UniProt P14842).
T2 construct: Crude synaptosome fractions were prepared from some brain regions in rats for receptor sources; from tissue
The series can be described thus: In vitro binding to serotonin (S2) receptor, [3H] ketanserin. Also on record: species or system rats. The following applies: for IC50: [3H] ketanserin, rat brain crude synaptosome fraction. As for the experimental part:
as §1, §2

The next series concerns the target adrenaline (α1) receptor. The series can be described thus: In vitro binding to adrenaline (α1) receptor, [3H] WB-4101. Also on record: species or system rats. The following applies: [3H] WB-4101, rat brain crude synaptosome fraction. On the procedure:
as §1, §2

The subject of the next series is mice. The series can be described thus: Acute toxicity. In kind it is in vivo, mice (Std-ddy strain). The following applies: dose 500 mg/kg oral, 7 days observation. The source says:
A group of 5 male mice (Std-ddy strain, 25-30 g) was used. The test compound was orally administered to the test animal in the form of a 0.5% tragacanth solution or suspension, and for 7 days after the administration of the test compound, the lethality of animals was observed.

The test system of series [2] is brain monoamine metabolites. Briefly: Increasing effect on concentration of brain monoamine metabolites. In kind it is in vivo, mice (Std-ddy strain). Particulars: Mus musculus, 2 h, non-dosed=100. The method in brief: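 Male Std-ddy mice (25-30 g, n=5) decapitated 2 h after dosing; brain extracts analysed by HPLC with electrochemical detection for DOPAC, HVA, MOPEG and 5-HIAA. Values expressed as % of non-dosed controls (=100).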

A further series addresses serotonin (S1) receptor. Briefly: In vitro binding to serotonin (S1) receptor, [3H] serotonin. Also on record: species or system rats. Particulars: rat brain crude synaptosome fraction. On the procedure: as §1, §2
Series [3] relates to scopolamine-induced deficit of spontaneous alternation. The series can be described thus: Improving effect on scopolamine-induced deficit of spontaneous alternation behavior (T-maze). The format is in vivo, mice (Std-ddY strain). The following applies: scopolamine hydrobromide 1 mg/kg i.p. The source says:
A group of 15-25 male mice (Std-ddY strain, 22-28 g) was used for evaluating effect of the test compounds on scopolamine-induced deficit of spontaneous alternation in a T-maze, which is a known animal model of memory impairment due to hypofunction of the cholinergic nervous system. The T-maze used consists of a stem and two arms which are 25 cm long, 5 cm wide and 10 cm high. The first 10 cm of the stem and last 10 cm of each arm are divided by sliding doors into start and goal boxes.
A test compound and scopolamine hydrobromide (1 mg/kg) were intraperitoneally administered to each mouse, and after 30 minutes a test of spontaneous alternation task in the T-maze was continuously repeated for 8 trials. Commonly, naive mice alternate each (right and left) goal box in turn, but scopolamine-treated animals tend to enter the same goal box repeatedly. The effect of the test compounds was expressed as % improvement (complete improvement to the alternation level of non-dosed mice=100%).

For series [4], the system named is cycloheximide-induced amnesia of passive avoidance response. Briefly: Improving effect on cycloheximide-induced amnesia of passive avoidance response. In kind it is in vivo, mice (Std-ddY strain). Particulars: cycloheximide 60 mg/kg s.c., retention at 24 h. The text has this:
Anti-amnesic effect of the test compounds was examined using mice given cycloheximide, which is a known amnesia-inducing agent.
A group of 15-20 male mice (Std-ddY strain, 27-33 g) was subjected to training and retention trials for a passive avoidance task in a step-down apparatus (30×30×50 cm) with a grid floor and a wooden platform (4×4×4 cm) in a center of the floor. In the training trial, each mouse was first placed on the platform. When the mouse stepped down on the grid floor, an electric shock (1 Hz, 0.5 sec, 60 VDC) was delivered to the feet for 15 seconds. Immediately after the training trial, cycloheximide (60 mg/kg, s.c.) and a test compound (i.p.) were administered. The retention trial was carried out 24 hours thereafter, the time from placing again each mouse placed on the platform until stepping down on the grid floor (step-down latency) was measured. The step-down latency in the retention trial was markedly shortened by treatment of cycloheximide (amnesia). The effect of test compounds was assessed by % improvement (complete improvement to the latency level of non-dosed animals=100%).

Series [5] can be described thus: Psychotropic / anti-psychotic (neuroleptic) activity, general statement. Particulars: experiments by the present inventors.
[6] abbreviates: Canis lupus familiaris, sc, apomorphine 0.3 mg/kg s.c. 2 h after compound, read-out: Inhibitory ratio (apomorphine-induced vomiting).
The mark [7] stands for this setting: [3H] spiperone, rat brain crude synaptosome fraction, read-out: IC50 D2.
[8] abbreviates: read-out: DOPAC concentration, % of control.
Where [9] appears, read: read-out: HVA concentration, % of control.
[10] abbreviates: read-out: 5-HIAA concentration, % of control.
Setting [11] is: read-out: MOPEG concentration, % of control.
The mark [12] stands for this setting: Canis lupus familiaris, sc, 2 h, read-out: Inhibitory ratio (apomorphine-induced vomiting).

Read-outs that look alike come from different tables or passages of the source. Bounds are passed on as bounds.

A word on the IC50: it is the midpoint of a concentration-inhibition curve.

T2 sequence (P14842 whole entry): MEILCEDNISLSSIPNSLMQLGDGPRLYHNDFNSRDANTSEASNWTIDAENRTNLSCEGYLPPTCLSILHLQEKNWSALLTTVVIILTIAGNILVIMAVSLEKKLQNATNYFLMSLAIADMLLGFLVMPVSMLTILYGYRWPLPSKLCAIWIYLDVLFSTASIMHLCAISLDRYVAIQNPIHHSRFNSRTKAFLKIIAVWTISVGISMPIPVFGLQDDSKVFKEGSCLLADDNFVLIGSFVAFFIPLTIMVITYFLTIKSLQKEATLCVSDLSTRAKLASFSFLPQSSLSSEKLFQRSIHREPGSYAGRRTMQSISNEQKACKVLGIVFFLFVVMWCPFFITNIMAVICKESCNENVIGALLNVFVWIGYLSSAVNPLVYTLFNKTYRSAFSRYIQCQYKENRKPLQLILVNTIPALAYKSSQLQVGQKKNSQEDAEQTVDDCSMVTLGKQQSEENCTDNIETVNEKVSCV
T1 sequence (P61169 whole entry): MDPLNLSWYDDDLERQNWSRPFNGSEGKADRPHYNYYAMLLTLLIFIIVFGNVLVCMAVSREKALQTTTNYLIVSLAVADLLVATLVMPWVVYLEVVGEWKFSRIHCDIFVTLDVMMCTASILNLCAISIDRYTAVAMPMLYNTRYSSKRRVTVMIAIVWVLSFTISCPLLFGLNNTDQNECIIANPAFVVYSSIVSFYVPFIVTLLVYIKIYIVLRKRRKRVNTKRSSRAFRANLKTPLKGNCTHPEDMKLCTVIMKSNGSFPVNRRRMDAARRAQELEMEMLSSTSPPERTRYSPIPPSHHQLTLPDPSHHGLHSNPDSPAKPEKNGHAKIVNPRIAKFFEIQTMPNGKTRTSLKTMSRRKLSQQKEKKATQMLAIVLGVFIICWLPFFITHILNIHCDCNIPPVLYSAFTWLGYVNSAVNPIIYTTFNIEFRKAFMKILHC

As to `CCN1CCN(c2cc(-c3ccc(F)cc3)c3c(n2)CCCCCC3)CC1` [Example 1a, 2-(4-ethyl-1-piperazinyl)-4-(4-fluorophenyl)-5,6,7,8,9,10-hexahydrocycloocta[b]pyridine], the inhibition in vivo at 0.2 mg/kg in series [1] (setting [6]) worked out at 100%. Besides, the IC50 is 24 nM on dopamine (D2) receptor (setting [7]), 9.9 nM at serotonin (S2) receptor and 83 nM on adrenaline (α1) receptor. In addition, the “Number of dead animals / Number of test animals” value in the series with mice is recorded as 0/5.
`CCN1CCN(c2cc(-c3ccc(F)cc3F)c3c(n2)CCCCCC3)CC1` [Example 2b, 2-(4-ethyl-1-piperazinyl)-4-(2,4-difluorophenyl)-5,6,7,8,9,10-hexahydrocycloocta[b] pyridine]: the inhibition in vivo at 0.2 mg/kg in series [1] (setting [6]) stood at 100%. Also, the response vs control in vivo at 2 mg/kg in series [2] (setting [8]) worked out at 364%; in series [2] (setting [9]), 271%. Besides, the “Number of dead animals / Number of test animals” value with mice is 0/5.
`CCN1CCN(c2cc(-c3ccc(F)cc3)c3c(n2)CCC3)CC1` [Example 6, 2-(4-Ethyl-1-piperazinyl)-4-(4-fluorophenyl)-6,7-dihydro-5H-1-pyrindine]: the inhibition in vivo at 1 mg/kg in [1] (Canis lupus familiaris, sc, dose 1.0 mg/kg, apomorphine 0.3 mg/kg s.c. 2 h after compound, read-out: Inhibitory ratio (apomorphine-induced vomiting)) was found to be 89%. In addition, the half-maximal inhibitory concentration (IC50) was determined as 19 nM on dopamine (D2) receptor (setting [7]), 1500 nM on serotonin (S1) receptor, 7.6 nM at serotonin (S2) receptor and 6.9 nM on adrenaline (α1) receptor. Further, the response vs control in vivo at 10 mg/kg was found to be 103% in [2] (setting [10]), 321% in [2] (setting [8]), 242% in [2] (setting [9]) and 115% in series [2] (setting [11]). Moreover, the “Number of dead animals / Number of test animals” value with mice is reported as 0/5.
For `CCN1CCN(c2cc(-c3ccc(F)cc3)c3c(n2)CCCCC3)CC1` [Example 25, 2-(4-Ethyl-1-piperazinyl)-4-(4-fluorophenyl)-6,7,8,9-tetrahydro-5H-cyclohepta[b]pyridine], in series [1] (Canis lupus familiaris, sc, dose 3.0 mg/kg, apomorphine 0.3 mg/kg s.c. 2 h after compound, read-out: Inhibitory ratio (apomorphine-induced vomiting)), the inhibition in vivo at 3 mg/kg amounted to 100%. The IC50 on dopamine (D2) receptor (setting [7]) came to 77 nM; at serotonin (S1) receptor, 2600 nM; on serotonin (S2) receptor, 2.3 nM; at adrenaline (α1) receptor, 120 nM. Also, the response vs control in vivo at 1 mg/kg was 113% in series [2] (setting [10]), 272% in series [2] (setting [8]), 207% in [2] (setting [9]) and 106% in series [2] (setting [11]). Also, in the series on mice, the “Number of dead animals / Number of test animals” value is 0/5.
With `c1ccc(-c2cc(N3CCNCC3)nc3c2CCC3)cc1` [Example 87, 2-(1-Piperazinyl)-4-phenyl-6,7-dihydro-5H-1-pyrindine], the IC50 on dopamine (D2) receptor (setting [7]) is 270 nM; at serotonin (S1) receptor it was 820 nM; at serotonin (S2) receptor it was 28 nM; at adrenaline (α1) receptor, 94 nM. The response vs control in vivo at 10 mg/kg amounted to 136% in series [2] (setting [10]), 180% in series [2] (setting [8]), 194% in series [2] (setting [9]) and 117% in [2] (setting [11]). The entries for the “Improvement (spontaneous alternation)” value in series [3] (dose 0.5 mg/kg i.p.) and in series [3] (dose 2.0 mg/kg i.p.) were 48.0% and 60.0%, respectively. The “Improvement (step-down latency)” value in series [4] (dose 0.5 mg/kg i.p.) was 48%; in series [4] (dose 2.0 mg/kg i.p.) it was 77%.
Turning to `Fc1ccc(-c2cc(N3CCNCC3)nc3c2CCC3)cc1` [Example 88, 2-(1-Piperazinyl)-4-(4-fluorophenyl)-6,7-dihydro-5H-1-pyrindine], the inhibition in vivo at 3 mg/kg in series [1] (setting [12]) is 94%. Besides, the IC50 at dopamine (D2) receptor came out at 70 nM; on serotonin (S1) receptor, 670 nM; at serotonin (S2) receptor it was 9.1 nM; at adrenaline (α1) receptor, 65 nM. In addition, the response vs control in vivo at 10 mg/kg worked out at 120% in series [2] (setting [10]), 329% in [2] (setting [8]), 209% in series [2] (setting [9]) and 136% in [2] (setting [11]). Moreover, the “Improvement (spontaneous alternation)” value in [3] (dose 10.0 mg/kg i.p.) worked out at 37.0%. Besides, in [4] (dose 2.0 mg/kg i.p.), the “Improvement (step-down latency)” value amounted to 60%.
Turning to `Fc1ccc(-c2cc(N3CCNCC3)nc3c2CCCCC3)cc1` [Example 97, 2-(1-Piperazinyl)-4-(4-fluorophenyl)-6,7,8,9-tetrahydro-5H-cyclohepta[b]pyridine], the IC50 on dopamine (D2) receptor (setting [7]) came to 260 nM; at serotonin (S1) receptor, 4100 nM; on serotonin (S2) receptor, 5.1 nM; at adrenaline (α1) receptor it was 890 nM. Besides, the response vs control in vivo at 10 mg/kg is 128% in [2] (setting [10]), 232% in series [2] (setting [8]), 176% in series [2] (setting [9]) and 125% in series [2] (setting [11]). The “Improvement (spontaneous alternation)” value in [3] (dose 10.0 mg/kg i.p.) was 32.0%. The “Improvement (step-down latency)” value in series [4] (dose 0.5 mg/kg i.p.) turned out to be 38%; in series [4] (dose 2.0 mg/kg i.p.), 36%.
As for `Cc1nc(N2CCN(c3ccccc3)CC2)cc(-c2ccc(F)cc2)c1-c1ccc(F)cc1` [Test Compound A, 4,5-Bis-(4-fluorophenyl)-6-methyl-2-(4-phenylpiperazino)pyridine, reference compound], the inhibition in vivo at 3 mg/kg in [1] (setting [12]) was found to be 11%. In addition, the “effect on apomorphine-induced vomiting (in words)” value in series [1] (dog, in vivo) is given as “no inhibitory effect”. For the same molecule, at dopamine (D2) receptor, the “binding property to dopamine (D2) receptors (in words)” value is “no binding property”. The IC50 at dopamine (D2) receptor (setting [7]), on serotonin (S2) receptor and on adrenaline (α1) receptor was more than 10000 nM each time. In addition, the “binding property to serotonin (S2) receptors (in words)” value on serotonin (S2) receptor was “no binding property”. In [5], the psychotropic activity entry was “did not show any psychotropic activity”.
